How the values were obtained:
[1] = target: T1, Solute carrier organic anion transporter family member 1A4 (Rattus norvegicus, UniProt O35913); assay: (§1) TP_TRANSPORTER: uptake in Xenopus laevis oocytes; assay type: functional, cell-based; conditions: oocyte
T1 sequence (O35913 whole entry): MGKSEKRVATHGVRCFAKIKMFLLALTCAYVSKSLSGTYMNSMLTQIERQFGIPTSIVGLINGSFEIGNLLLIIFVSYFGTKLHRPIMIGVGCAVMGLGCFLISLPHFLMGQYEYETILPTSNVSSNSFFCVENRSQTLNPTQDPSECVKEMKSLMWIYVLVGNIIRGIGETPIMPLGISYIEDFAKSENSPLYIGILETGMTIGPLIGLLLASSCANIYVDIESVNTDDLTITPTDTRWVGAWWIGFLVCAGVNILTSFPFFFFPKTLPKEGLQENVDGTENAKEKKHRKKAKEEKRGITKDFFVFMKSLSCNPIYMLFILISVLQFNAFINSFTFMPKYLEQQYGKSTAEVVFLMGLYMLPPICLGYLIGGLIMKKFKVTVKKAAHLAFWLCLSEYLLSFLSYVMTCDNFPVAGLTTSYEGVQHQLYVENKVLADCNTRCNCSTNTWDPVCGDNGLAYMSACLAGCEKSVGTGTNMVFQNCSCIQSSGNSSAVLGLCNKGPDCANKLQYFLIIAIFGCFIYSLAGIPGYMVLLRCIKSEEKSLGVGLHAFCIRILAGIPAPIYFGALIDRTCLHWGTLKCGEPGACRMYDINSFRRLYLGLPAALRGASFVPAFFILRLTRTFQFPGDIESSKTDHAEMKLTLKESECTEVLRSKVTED

[2] = target: T2, Solute carrier organic anion transporter family member 1A1 (Rattus norvegicus, UniProt P46720); assay: as §1; assay type: functional, cell-based; conditions: oocyte
T2 sequence (P46720 whole entry): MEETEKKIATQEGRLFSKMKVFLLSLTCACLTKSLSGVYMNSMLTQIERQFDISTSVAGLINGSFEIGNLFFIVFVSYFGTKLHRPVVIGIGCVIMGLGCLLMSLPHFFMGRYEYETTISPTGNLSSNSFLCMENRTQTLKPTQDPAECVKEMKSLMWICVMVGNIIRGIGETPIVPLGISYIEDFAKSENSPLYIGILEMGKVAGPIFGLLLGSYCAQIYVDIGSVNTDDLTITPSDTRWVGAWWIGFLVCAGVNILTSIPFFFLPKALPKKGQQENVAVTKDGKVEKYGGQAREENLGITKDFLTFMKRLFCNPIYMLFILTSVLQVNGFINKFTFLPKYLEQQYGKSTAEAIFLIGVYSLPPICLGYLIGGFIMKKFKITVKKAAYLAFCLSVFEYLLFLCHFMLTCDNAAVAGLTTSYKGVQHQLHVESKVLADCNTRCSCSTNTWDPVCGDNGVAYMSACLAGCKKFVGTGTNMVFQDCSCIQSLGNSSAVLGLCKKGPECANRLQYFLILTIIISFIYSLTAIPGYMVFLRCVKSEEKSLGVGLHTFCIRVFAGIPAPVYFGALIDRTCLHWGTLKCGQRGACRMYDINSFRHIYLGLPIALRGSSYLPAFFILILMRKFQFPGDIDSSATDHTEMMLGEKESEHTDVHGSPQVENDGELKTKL

[3] = substrate: C[C@H](CCC(=O)NCCS(=O)(=O)O)[C@H]1CC[C@H]2[C@@H]3[C@@H](O)C[C@@H]4C[C@H](O)CC[C@]4(C)[C@H]3CC[C@]12C; assay: as §1; assay type: functional, cell-based, Oocyte
[4] = substrate: C[C@H](CCC(=O)NCCS(=O)(=O)O)[C@H]1CC[C@H]2[C@@H]3[C@H](O)C[C@@H]4C[C@H](O)CC[C@]4(C)[C@H]3CC[C@]12C; assay: as §1; assay type: functional, cell-based, Oocyte
[5] = substrate: [H][C@@]12CC=C3C[C@@H](OS(=O)(=O)O)CC[C@]3(C)[C@@]1([H])CC[C@]1(C)C(=O)CC[C@@]21[H]; assay: as §1; assay type: functional, cell-based, Oocyte
[6] = substrate: CC(C)C[C@@H]1NC(=O)[C@@H](C(C)C)NC(=O)[C@@H]2CCCN2C(=O)[C@@H](CC(=O)O)NC(=O)[C@@H](Cc2c[nH]c3ccccc23)NC1=O; assay: as §1; assay type: functional, cell-based, Oocyte
[7] = substrate: [H][C@]12CC[C@]3([H])[C@]([H])(CC[C@]4(C)C([C@H](C)CCC(=O)NCCS(=O)(=O)O)CC[C@@]34[H])[C@@]1(C)CC[C@@H](OS(=O)(=O)O)C2; assay: as §1; assay type: functional, cell-based, Oocyte

C[C@H](CCC(=O)NCCS(=O)(=O)O)C1CC[C@H]2[C@@H]3CC[C@@H]4C[C@H](OS(=O)(=O)O)CC[C@]4(C)[C@H]3CC[C@]12C (some centres not stated)
Activity [1]: is not a substrate [-]

C=CC1=C(C)/C(=C/c2[nH]c(Cc3[nH]c(/C=C4\NC(=O)C(C)=C4C=C)c(C)c3CCC(=O)O[C@@H]3OC(C(=O)O)[C@@H](O)C(O)C3O)c(CCC(=O)O)c2C)NC1=O (some centres not stated) [BILIRUBIN MONOGLUCURONIDE]
Activity [2]: substrate [+]
Activity [1]: is not a substrate [-]

GADOXETATE
Activity [1]: is not a substrate [-]

CCCCC/C=C\C\C=C/C=C/C=C/[C@@H](SC[C@@H](NC(=O)CC[C@H](N)C(=O)O)C(=O)NCC(=O)O)[C@@H](O)CCCC(=O)O [LEUKOTRIEN C4]
Activity [1]: is not a substrate [-]

O=C1OC(c2ccc(O)c(S(=O)(=O)[O-])c2)(c2ccc(O)c(S(=O)(=O)[O-])c2)c2c(Br)c(Br)c(Br)c(Br)c21.[Na+].[Na+] [SULFOBROMOPHTHALEIN SODIUM]
Activity [1]: is not a substrate [-]

B1: Solute carrier organic anion transporter family member 1A4 (Rattus norvegicus) (protein)
chain: MGKSEKRVATHGVRCFAKIKMFLLALTCAYVSKSLSGTYMNSMLTQIERQFGIPTSIVGLINGSFEIGNLLLIIFVSYFGTKLHRPIMIGVGCAVMGLGCFLISLPHFLMGQYEYETILPTSNVSSNSFFCVENRSQTLNPTQDPSECVKEMKSLMWIYVLVGNIIRGIGETPIMPLGISYIEDFAKSENSPLYIGILETGMTIGPLIGLLLASSCANIYVDIESVNTDDLTITPTDTRWVGAWWIGFLVCAGVNILTSFPFFFFPKTLPKEGLQENVDGTENAKEKKHRKKAKEEKRGITKDFFVFMKSLSCNPIYMLFILISVLQFNAFINSFTFMPKYLEQQYGKSTAEVVFLMGLYMLPPICLGYLIGGLIMKKFKVTVKKAAHLAFWLCLSEYLLSFLSYVMTCDNFPVAGLTTSYEGVQHQLYVENKVLADCNTRCNCSTNTWDPVCGDNGLAYMSACLAGCEKSVGTGTNMVFQNCSCIQSSGNSSAVLGLCNKGPDCANKLQYFLIIAIFGCFIYSLAGIPGYMVLLRCIKSEEKSLGVGLHAFCIRILAGIPAPIYFGALIDRTCLHWGTLKCGEPGACRMYDINSFRRLYLGLPAALRGASFVPAFFILRLTRTFQFPGDIESSKTDHAEMKLTLKESECTEVLRSKVTED
Km [3]: 17 µM
Km [4]: 12 µM
Km [5]: 17 µM
Km [6]: 30 µM

B2: Solute carrier organic anion transporter family member 1A1 (Rattus norvegicus) (protein)
chain: MEETEKKIATQEGRLFSKMKVFLLSLTCACLTKSLSGVYMNSMLTQIERQFDISTSVAGLINGSFEIGNLFFIVFVSYFGTKLHRPVVIGIGCVIMGLGCLLMSLPHFFMGRYEYETTISPTGNLSSNSFLCMENRTQTLKPTQDPAECVKEMKSLMWICVMVGNIIRGIGETPIVPLGISYIEDFAKSENSPLYIGILEMGKVAGPIFGLLLGSYCAQIYVDIGSVNTDDLTITPSDTRWVGAWWIGFLVCAGVNILTSIPFFFLPKALPKKGQQENVAVTKDGKVEKYGGQAREENLGITKDFLTFMKRLFCNPIYMLFILTSVLQVNGFINKFTFLPKYLEQQYGKSTAEAIFLIGVYSLPPICLGYLIGGFIMKKFKITVKKAAYLAFCLSVFEYLLFLCHFMLTCDNAAVAGLTTSYKGVQHQLHVESKVLADCNTRCSCSTNTWDPVCGDNGVAYMSACLAGCKKFVGTGTNMVFQDCSCIQSLGNSSAVLGLCKKGPECANRLQYFLILTIIISFIYSLTAIPGYMVFLRCVKSEEKSLGVGLHTFCIRVFAGIPAPVYFGALIDRTCLHWGTLKCGQRGACRMYDINSFRHIYLGLPIALRGSSYLPAFFILILMRKFQFPGDIDSSATDHTEMMLGEKESEHTDVHGSPQVENDGELKTKL
Km [7]: 6 µM
Km [6]: 600 µM

Reference: ChEMBL document CHEMBL2073854, “Localization and function of the organic anion-transporting polypeptide Oatp2 in rat liver” (Gastroenterology, 1999)
